# Source: paper PMC9481570, “A small molecule antagonist of SMN disrupts the interaction between SMN and RNAP II” (Nature Communications, 2022)
# “And” between values parts separate entries of the source, which are not always exact repeats. Identical values can stand only once.
# Tests used:
# Assay in all cases: Affinity-purification and mass spectrometry (AP-MS) chemical proteomics, all proteins;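 as to Difference: 200 µM free competitor with 20 µM biotin probe overnight in lysate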
# Type in all cases: binding
# [1] = molecular target: T1, proteins displaced from immobilized biotin-Cmpd 1 pulldowns (U2OS cell lysate) (Homo sapiens, UniProt P01040); details: GN=CSTA (P01040)
# T1 construct: endogenous in cells; host or cells: U2OS
# T1 sequence (P01040 whole entry): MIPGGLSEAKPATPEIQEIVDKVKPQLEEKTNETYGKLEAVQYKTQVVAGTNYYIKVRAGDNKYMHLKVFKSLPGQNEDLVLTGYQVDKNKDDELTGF
# [2] = molecular target: T2, proteins displaced from immobilized biotin-Cmpd 1 pulldowns (U2OS cell lysate) (Homo sapiens, UniProt P04083); details: GN=ANXA1 (P04083)
# T2 construct: endogenous in cells; host or cells: U2OS
# T2 sequence (P04083 whole entry): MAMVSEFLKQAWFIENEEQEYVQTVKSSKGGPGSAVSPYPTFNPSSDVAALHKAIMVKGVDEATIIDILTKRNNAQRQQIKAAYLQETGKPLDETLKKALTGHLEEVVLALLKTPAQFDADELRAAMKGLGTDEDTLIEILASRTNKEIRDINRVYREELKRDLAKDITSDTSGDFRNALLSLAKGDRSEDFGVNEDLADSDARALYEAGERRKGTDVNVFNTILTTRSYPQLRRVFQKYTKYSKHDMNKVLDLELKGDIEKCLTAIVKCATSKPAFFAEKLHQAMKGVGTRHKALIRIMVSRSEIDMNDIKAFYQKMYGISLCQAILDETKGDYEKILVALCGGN
# [3] = molecular target: T3, proteins displaced from immobilized biotin-Cmpd 1 pulldowns (U2OS cell lysate) (Homo sapiens, UniProt P06396); details: GN=GSN (P06396)
# T3 construct: endogenous in cells; host or cells: U2OS
# T3 sequence (P06396 28-782): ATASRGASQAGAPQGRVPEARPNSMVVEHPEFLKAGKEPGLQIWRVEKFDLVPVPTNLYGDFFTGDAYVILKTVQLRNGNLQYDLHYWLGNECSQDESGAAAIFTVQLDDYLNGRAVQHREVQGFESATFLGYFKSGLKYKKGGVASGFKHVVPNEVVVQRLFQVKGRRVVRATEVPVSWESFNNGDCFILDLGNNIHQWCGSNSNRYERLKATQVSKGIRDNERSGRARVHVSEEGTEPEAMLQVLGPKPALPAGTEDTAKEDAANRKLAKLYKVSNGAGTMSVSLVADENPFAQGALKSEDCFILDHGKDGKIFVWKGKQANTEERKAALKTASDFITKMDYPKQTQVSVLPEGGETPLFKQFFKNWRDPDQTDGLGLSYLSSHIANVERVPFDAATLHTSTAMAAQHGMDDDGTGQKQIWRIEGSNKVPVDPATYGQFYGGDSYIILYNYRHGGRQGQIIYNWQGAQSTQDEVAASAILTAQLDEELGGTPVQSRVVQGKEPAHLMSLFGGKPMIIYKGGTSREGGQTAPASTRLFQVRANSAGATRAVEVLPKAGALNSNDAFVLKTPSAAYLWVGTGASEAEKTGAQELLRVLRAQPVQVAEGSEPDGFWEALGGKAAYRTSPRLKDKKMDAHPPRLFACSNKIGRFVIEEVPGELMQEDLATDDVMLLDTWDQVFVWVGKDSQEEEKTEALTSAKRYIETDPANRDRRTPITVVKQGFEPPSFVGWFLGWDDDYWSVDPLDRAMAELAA
# [4] = molecular target: T4, proteins displaced from immobilized biotin-Cmpd 1 pulldowns (U2OS cell lysate) (Homo sapiens, UniProt P20700); details: GN=LMNB1 (P20700)
# T4 construct: endogenous in cells; host or cells: U2OS
# T4 sequence (P20700 whole entry): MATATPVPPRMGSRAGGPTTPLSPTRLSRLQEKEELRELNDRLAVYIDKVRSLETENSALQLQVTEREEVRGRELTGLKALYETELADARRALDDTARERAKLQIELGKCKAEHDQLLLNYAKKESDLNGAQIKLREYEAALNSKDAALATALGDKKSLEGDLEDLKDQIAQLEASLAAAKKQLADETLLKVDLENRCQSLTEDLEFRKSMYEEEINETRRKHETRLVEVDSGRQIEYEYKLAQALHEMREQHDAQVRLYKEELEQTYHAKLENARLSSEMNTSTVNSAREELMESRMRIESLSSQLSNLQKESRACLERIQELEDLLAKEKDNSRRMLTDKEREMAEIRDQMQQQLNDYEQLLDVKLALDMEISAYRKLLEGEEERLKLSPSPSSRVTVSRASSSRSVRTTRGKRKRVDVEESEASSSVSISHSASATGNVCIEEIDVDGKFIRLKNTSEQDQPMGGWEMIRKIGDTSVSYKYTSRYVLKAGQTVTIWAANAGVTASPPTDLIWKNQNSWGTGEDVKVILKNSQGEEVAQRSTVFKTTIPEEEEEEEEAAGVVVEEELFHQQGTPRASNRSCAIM
# [5] = molecular target: T5, proteins displaced from immobilized biotin-Cmpd 1 pulldowns (U2OS cell lysate) (Homo sapiens, UniProt P49368); details: GN=CCT3 (P49368)
# T5 construct: endogenous in cells; host or cells: U2OS
# T5 sequence (P49368 whole entry): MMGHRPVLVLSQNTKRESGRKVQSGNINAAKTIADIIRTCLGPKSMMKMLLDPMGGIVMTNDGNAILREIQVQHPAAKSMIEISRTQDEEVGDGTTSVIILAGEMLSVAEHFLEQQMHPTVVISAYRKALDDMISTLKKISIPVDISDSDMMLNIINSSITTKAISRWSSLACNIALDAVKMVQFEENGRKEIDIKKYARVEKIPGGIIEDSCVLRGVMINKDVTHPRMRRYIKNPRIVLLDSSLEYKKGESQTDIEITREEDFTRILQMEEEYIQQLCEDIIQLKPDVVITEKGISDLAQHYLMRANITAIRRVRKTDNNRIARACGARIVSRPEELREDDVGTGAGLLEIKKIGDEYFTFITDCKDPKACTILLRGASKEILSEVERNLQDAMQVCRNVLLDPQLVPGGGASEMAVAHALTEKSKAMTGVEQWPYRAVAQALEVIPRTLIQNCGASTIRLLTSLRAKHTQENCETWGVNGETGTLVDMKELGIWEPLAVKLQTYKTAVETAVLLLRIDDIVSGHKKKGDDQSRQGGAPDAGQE
# [6] = molecular target: T6, proteins displaced from immobilized biotin-Cmpd 1 pulldowns (U2OS cell lysate) (Homo sapiens, UniProt P62306); details: GN=SNRPF (P62306)
# T6 construct: endogenous in cells; host or cells: U2OS
# T6 sequence (P62306 whole entry): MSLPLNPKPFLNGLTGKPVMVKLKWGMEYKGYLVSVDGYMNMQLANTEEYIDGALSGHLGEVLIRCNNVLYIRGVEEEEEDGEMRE
# [7] = molecular target: T7, proteins displaced from immobilized biotin-Cmpd 1 pulldowns (U2OS cell lysate) (Homo sapiens, UniProt Q01105); details: GN=SET (Q01105)
# T7 construct: endogenous in cells; host or cells: U2OS
# T7 sequence (Q01105 whole entry): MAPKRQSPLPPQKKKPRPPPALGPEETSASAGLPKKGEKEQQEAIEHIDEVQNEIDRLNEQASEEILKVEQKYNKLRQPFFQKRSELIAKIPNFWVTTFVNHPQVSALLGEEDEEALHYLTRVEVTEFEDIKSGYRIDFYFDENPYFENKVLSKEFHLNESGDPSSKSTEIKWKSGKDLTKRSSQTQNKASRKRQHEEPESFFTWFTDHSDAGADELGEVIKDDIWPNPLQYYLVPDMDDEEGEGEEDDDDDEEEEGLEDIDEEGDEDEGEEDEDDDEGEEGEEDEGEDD
# [8] = molecular target: T8, proteins displaced from immobilized biotin-Cmpd 1 pulldowns (U2OS cell lysate) (Homo sapiens, UniProt Q13601); details: GN=KRR1 (Q13601)
# T8 construct: endogenous in cells; host or cells: U2OS
# T8 sequence (Q13601 whole entry): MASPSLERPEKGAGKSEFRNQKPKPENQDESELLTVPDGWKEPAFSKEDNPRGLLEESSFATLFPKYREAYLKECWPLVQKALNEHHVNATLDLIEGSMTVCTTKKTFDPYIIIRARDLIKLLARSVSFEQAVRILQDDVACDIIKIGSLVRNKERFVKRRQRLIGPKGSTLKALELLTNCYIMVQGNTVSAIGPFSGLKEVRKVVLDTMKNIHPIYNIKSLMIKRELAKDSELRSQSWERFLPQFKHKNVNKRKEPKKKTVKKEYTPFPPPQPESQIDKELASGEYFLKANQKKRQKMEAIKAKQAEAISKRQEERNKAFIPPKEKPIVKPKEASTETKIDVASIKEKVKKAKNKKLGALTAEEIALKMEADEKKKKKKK
# [9] = molecular target: T9, proteins displaced from immobilized biotin-Cmpd 1 pulldowns (U2OS cell lysate) (Homo sapiens, UniProt Q9UN81); details: GN=L1RE1 (Q9UN81)
# T9 construct: endogenous in cells; host or cells: U2OS
# T9 sequence (Q9UN81 whole entry): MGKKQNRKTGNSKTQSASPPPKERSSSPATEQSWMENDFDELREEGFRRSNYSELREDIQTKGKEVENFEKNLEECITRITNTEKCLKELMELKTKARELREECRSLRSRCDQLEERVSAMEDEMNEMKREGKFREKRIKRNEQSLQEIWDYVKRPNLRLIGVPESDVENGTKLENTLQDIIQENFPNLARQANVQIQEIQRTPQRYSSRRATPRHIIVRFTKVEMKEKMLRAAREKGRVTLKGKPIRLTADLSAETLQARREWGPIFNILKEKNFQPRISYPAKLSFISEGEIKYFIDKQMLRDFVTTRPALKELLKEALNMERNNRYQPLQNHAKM
# [10] = molecular target: T10, proteins displaced from immobilized biotin-Cmpd 1 pulldowns (U2OS cell lysate) (Homo sapiens, UniProt Q9UNF1); details: GN=MAGED2 (Q9UNF1)
# T10 construct: endogenous in cells; host or cells: U2OS
# T10 sequence (Q9UNF1 whole entry): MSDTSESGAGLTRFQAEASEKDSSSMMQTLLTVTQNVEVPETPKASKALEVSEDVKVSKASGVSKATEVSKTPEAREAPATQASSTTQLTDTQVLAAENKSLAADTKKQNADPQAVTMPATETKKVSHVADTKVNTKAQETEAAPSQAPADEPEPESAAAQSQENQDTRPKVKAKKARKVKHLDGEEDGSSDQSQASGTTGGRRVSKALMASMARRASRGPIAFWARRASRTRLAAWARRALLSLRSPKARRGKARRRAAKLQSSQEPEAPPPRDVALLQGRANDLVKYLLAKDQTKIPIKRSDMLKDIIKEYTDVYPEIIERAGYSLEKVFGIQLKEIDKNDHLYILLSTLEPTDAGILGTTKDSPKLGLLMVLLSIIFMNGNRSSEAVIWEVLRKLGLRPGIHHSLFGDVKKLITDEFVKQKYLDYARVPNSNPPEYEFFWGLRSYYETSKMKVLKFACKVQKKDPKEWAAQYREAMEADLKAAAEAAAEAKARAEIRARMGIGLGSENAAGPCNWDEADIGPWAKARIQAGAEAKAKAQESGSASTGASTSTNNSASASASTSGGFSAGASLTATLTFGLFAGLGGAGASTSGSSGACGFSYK
structure (smiles),measurement,setting,value
"Cn1c2c(c(=N)c3c1CCC3)CCC2 [Compound 1, 4-methyl-2,3,4,5,6,7-hexahydrodicyclopenta[b,e]pyridin-8(1H)-imine]",Difference,"[1]; Cmpd minus DMSO, -LOG(P-value) 0.909034",-0.9866
same,iBAQ Cmpd,[1]; replicates 1-3,23.1983 and 23.5243 and 22.4826
same,Difference,"[2]; Cmpd minus DMSO, -LOG(P-value) 1.67082",-2.872
same,iBAQ Cmpd,[2]; replicates 1-3,14.2553 and 14.7701 and 16.566
same,Difference,"[3]; Cmpd minus DMSO, -LOG(P-value) 0.71197",-1.503
same,iBAQ Cmpd,[3]; replicates 1-3,18.7093 and 18.978 and 19.6978
same,Difference,"[4]; Cmpd minus DMSO, -LOG(P-value) 0.765149",0.6571
same,iBAQ Cmpd,[4]; replicates 1-3,20.5307 and 20.0559 and 19.5746
same,Difference,"[5]; Cmpd minus DMSO, -LOG(P-value) 0.937615",0.5386
same,iBAQ Cmpd,[5]; replicates 1-3,20.7218 and 21.2363 and 20.6211
same,Difference,"[6]; Cmpd minus DMSO, -LOG(P-value) 2.38454",-6.902
same,iBAQ Cmpd,[6]; replicates 1-3,16.7845 and 14.607 and 12.7996
same,Difference,"[7]; Cmpd minus DMSO, -LOG(P-value) 0.992199",4.792
same,iBAQ Cmpd,[7]; replicates 1-3,21.3063 and 22.1737 and 20.6451
same,Difference,"[8]; Cmpd minus DMSO, -LOG(P-value) 0.80089",1.298
same,iBAQ Cmpd,[8]; replicates 1-3,17.9419 and 17.334 and 17.0379
same,Difference,"[9]; Cmpd minus DMSO, -LOG(P-value) 0.981964",1.653
same,iBAQ Cmpd,[9]; replicates 1-3,17.9091 and 17.4238 and 17.5156
same,Difference,"[10]; Cmpd minus DMSO, -LOG(P-value) 0.822167",0.7403
same,iBAQ Cmpd,[10]; replicates 1-3,20.5058 and 20.3034 and 20.4789
